These results are taken from ChEMBL document CHEMBL1144953, “Anti-androgens with full antagonistic activity toward human prostate tumor LNCaP cells with mutated androgen receptor” (Bioorg Med Chem Lett, 2003).

What is called pKd is the Kd on a negative log10 scale, so that one unit is a factor of ten. Lower therefore signals a high Kd.

The assay addresses T1, Androgen receptor (Homo sapiens, UniProt P10275).
T1 sequence (P10275 whole entry): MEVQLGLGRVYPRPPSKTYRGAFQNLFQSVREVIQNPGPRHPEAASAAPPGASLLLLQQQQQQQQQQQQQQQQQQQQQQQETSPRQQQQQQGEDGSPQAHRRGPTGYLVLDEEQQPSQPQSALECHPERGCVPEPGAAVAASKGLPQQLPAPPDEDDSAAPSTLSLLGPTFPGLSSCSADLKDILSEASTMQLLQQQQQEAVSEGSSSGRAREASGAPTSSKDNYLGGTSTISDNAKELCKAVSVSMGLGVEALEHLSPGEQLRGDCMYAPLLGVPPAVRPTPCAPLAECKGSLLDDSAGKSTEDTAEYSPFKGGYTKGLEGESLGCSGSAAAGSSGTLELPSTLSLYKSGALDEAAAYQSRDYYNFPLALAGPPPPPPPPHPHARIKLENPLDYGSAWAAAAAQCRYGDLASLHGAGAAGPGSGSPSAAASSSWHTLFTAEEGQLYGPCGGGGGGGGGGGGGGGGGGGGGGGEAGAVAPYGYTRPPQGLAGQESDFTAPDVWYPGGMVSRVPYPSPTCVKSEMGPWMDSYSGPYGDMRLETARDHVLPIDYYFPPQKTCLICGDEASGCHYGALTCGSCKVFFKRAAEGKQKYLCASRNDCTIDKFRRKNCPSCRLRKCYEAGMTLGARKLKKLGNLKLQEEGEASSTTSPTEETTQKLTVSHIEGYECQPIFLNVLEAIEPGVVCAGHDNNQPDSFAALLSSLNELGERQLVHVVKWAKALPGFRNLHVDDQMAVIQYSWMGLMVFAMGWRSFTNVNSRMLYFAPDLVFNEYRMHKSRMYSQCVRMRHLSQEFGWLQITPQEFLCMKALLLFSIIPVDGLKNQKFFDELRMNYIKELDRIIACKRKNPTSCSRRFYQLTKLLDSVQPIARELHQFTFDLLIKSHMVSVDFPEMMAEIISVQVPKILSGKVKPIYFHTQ
Kind of assay: Dissociation constant against GST-hARLBD was measured in SC-3 cell by using [3H]testosterone as radioligand. It counts as cell-based.

pKd: −log10 of the molar value.

`O=C1ON=C(c2ccccc2F)/C1=C/c1ccc(N2CCCC2)cc1` had a pKd of 8.85.

Take `O=C1ON=C(c2ccc(F)cc2)/C1=C/c1ccc(N2CCCC2)cc1`: the pKd was 8.85.

Take `O=C1ON=C(c2ccc(O)cc2)/C1=C/c1ccc(N2CCCC2)cc1`: the negative logarithm of the Kd (pKd) is 8.85.

For the molecule `CCCCN(CCCC)c1ccc(/C=C2\C(=O)ON=C2c2ccccc2)cc1`, the pKd is 8.85.
